The target of assay [1] is human MLKL (full length) (Homo sapiens (Human), UniProt Q8NB16). As to the kind of experiment: KINOMEscan binding assay, human MLKL (full length). The note with it: KINOMEscan, Table 21; read-out: Human MLKL (full-length) (KD). The procedure, abridged: (§1)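 Active-site competition binding: DNA-tagged kinase (T7 phage fusion from BL21-derived E. coli lysate, or HEK-293-expressed) captured on immobilized-ligand beads, with bound kinase in the eluate quantified by qPCR. Compounds ran as 11-point 3-fold dilutions, 1% DMSO, top 30,000 nM for most. Kd came from a Hill fit (slope −1).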

In assay [2] the target is human RIPK1 (Homo sapiens (Human), UniProt Q13546). Description: KINOMEscan binding assay, human RIPK1. The note with it: Table 21. In outline:
as §1

Assay [3] has as its target human RIPK3 (Homo sapiens (Human), UniProt Q9Y572). As to the kind of experiment: KINOMEscan binding assay, human RIPK3. Particulars: Table 21. The procedure, abridged: as §1

human MLKL (full length), sequence (Q8NB16 whole entry, the tested form may be a part): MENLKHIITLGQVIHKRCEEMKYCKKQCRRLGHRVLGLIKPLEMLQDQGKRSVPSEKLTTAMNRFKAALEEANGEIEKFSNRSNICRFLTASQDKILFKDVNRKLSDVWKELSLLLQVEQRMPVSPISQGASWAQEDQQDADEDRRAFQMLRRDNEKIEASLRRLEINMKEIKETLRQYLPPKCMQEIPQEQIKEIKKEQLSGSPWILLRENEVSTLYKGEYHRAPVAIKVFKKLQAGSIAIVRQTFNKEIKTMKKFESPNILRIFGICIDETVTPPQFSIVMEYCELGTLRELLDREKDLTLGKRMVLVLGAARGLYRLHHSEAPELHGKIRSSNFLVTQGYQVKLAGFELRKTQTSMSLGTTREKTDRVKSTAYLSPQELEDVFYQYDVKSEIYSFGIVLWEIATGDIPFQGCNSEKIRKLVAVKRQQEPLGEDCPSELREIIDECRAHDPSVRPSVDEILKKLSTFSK
human RIPK3, sequence (Q9Y572 whole entry): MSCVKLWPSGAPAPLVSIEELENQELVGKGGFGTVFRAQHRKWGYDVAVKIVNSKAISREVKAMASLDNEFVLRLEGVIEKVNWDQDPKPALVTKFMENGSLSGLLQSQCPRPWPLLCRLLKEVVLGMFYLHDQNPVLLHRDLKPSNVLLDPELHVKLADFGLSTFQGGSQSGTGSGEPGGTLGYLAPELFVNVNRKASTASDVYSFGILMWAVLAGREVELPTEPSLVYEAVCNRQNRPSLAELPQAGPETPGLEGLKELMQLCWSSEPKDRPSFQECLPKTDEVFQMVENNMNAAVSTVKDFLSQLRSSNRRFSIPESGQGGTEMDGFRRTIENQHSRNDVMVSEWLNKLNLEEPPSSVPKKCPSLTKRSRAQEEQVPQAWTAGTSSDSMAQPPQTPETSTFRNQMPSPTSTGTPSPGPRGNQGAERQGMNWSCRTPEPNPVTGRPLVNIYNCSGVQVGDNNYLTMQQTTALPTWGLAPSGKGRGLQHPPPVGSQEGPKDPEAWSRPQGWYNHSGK
human RIPK1, sequence (Q13546 whole entry): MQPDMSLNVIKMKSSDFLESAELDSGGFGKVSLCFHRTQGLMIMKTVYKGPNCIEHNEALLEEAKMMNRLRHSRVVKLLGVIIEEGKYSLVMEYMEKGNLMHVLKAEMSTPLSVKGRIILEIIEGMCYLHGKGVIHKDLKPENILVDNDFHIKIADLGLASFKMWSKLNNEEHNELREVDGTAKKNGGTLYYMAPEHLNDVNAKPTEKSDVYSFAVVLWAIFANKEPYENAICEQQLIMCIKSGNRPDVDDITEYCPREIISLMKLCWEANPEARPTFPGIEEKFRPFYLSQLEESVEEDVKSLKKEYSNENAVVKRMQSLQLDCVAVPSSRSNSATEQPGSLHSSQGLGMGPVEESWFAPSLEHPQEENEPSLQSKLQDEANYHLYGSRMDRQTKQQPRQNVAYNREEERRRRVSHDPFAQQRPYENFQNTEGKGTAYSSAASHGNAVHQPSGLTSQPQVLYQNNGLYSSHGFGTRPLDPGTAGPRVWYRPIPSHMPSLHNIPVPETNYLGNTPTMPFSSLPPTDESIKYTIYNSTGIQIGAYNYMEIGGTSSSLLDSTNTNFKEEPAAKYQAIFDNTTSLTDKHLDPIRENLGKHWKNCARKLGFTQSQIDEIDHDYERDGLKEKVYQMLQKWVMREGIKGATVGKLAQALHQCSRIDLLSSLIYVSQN

The Kd is a measure of binding affinity in units of concentration. For `CC(C)N(C)C(=O)C(C)n1cc(-c2cnc(N)c3c(-c4ccc(NS(=O)(=O)C(F)F)c(O[C@@H](C)c5ccc(F)cc5)c4)nn(C)c23)cn1` (stereo partly drawn) [Compound 81, 2-(4-(4-amino-3-(4-((difluoromethyl)sulfonamido)-3-((S)-1-(4-fluorophenyl)ethoxy)phenyl)-1-methyl-1H-pyrazolo[4,3-c]pyridin-7-yl)-1H-pyrazol-1-yl)-N-isopropyl-N-methylpropanamide], the dissociation constant Kd in assay [1] was under 0.001 µM; in assay [2], over 10 µM; in assay [3], over 10 µM.
Regarding `Cn1cc(-c2cnc(N)c3c(-c4ccc(NS(=O)(=O)C(F)F)c(OCc5ccc(F)cc5)c4)nn(C)c23)cn1` [Compound 16, N-(4-(4-amino-1-methyl-7-(1-methyl-1H-pyrazol-4-yl)-1H-pyrazolo[4,3-c]pyridin-3-yl)-2-((4-fluoro-benzyl)oxy)phenyl)-1,1-difluoromethane-sulfonamide], the Kd is under 0.001 µM in assay [1], over 10 µM in assay [2] and over 10 µM in assay [3].
On to `C[C@H](Oc1cc(-c2nn(C)c3c(-c4cnn(C(F)F)c4)cnc(N)c23)ccc1NS(=O)(=O)C(F)F)c1ccc(F)cc1` [Compound 123, (S)-N-(4-(4-amino-7-(1-(difluoromethyl)-1H-pyrazol-4-yl)-1-methyl-1H-pyrazolo[4,3-c]pyridin-3-yl)-2-(1-(4-fluorophenyl)ethoxy)phenyl)-1,1-difluoromethanesulfonamide], for which the values for the Kd in assay [1], in assay [2] and in assay [3] were under 0.001 µM, over 10 µM and over 10 µM, respectively.
As to `C[C@H](Oc1cc(-c2nn(C)c3c(-c4cnn(C5C[C@H]6CNC[C@H]6C5)c4)cnc(N)c23)ccc1NS(=O)(=O)C(F)F)c1ccc(F)cc1` (stereo partly drawn) [Compound 163, N-(4-(4-amino-1-methyl-7-(1-((3aR,6aS)-octahydrocyclo-penta[c]pyrrol-5-yl)-1H-pyrazol-4-yl)-1H-pyrazolo[4,3-c]pyridin-3-yl)-2-((S)-1-(4-fluoropohenyl)eth-oxy)phenyl)-1,1-difluoromethane-sulfonamide], the equilibrium dissociation constant (Kd) in assay [1] was under 0.001 µM; in assay [2], over 10 µM; in assay [3], over 10 µM.
With `CC(C)n1nc(-c2ccc(NS(=O)(=O)C(F)F)c(O[C@@H](C)c3ccc(F)cc3)c2)c2c(N)ncc(-c3ccncc3)c21` [Compound 50, (S)-N-(4-(4-amino-1-isopropyl-7-(pyridin-4-yl)-1H-pyrazolo[4,3-c]pyridin-3-yl)-2-(1-(4-fluorophenyl)ethoxy)phenyl)-1,1-difluoromethane-sulfonamide], the Kd in assay [1] was under 0.001 µM; in assay [2], over 10 µM; in assay [3], over 10 µM.
Consider `Cn1nc(-c2ccc(NS(=O)(=O)C(F)F)c(OCc3nccs3)c2)c2c(N)ncc(-c3cnn(C4CCOCC4)c3)c21` [Compound 143, N-(4-(4-amino-1-methyl-7-(1-(tetrahydro-2H-pyran-4-yl)-1H-pyrazol-4-yl)-1H-pyrazolo[4,3-c]pyridin-3-yl)-2-(thiazol-2-yl-methoxy)phenyl)-1,1-difluoromethane-sulfonamide], for which the Kd in assay [1] was under 0.001 µM; in assay [2], over 10 µM; in assay [3], over 10 µM.
For the molecule `C[C@H](Oc1cc(-c2nn(C)c3c(-c4cnc(N5CCN(C)CC5)nc4)cnc(N)c23)ccc1NS(=O)(=O)C(F)F)c1ccc(F)cc1` [Compound 105, (S)-N-(4-(4-amino-1-methyl-7-(2-(4-methylpiperazin-1-yl)pyrimidin-5-yl)-1H-pyrazolo[4,3-c]pyridin-3-yl)-2-(1-(4-fluorophenyl)ethoxy)phenyl)-1,1-difluoromethanesulfonamide], the Kd in assay [1] was under 0.001 µM; in assay [2], over 10 µM; in assay [3] it was over 10 µM.
Consider `CC(C)Oc1cc(-c2nn(C)c3c(-c4cnn(C5CCOCC5)c4)cnc(N)c23)ccc1NS(=O)(=O)C(F)F` [Compound 144, N-(4-(4-amino-1-methyl-7-(1-(tetrahydro-2H-pyran-4-yl)-1H-pyrazol-4-yl)-1H-pyrazolo[4,3-c]pyridin-3-yl)-2-isopropoxy-phenyl)-1,1-difluoromethane-sulfonamide], for which the values for the Kd in assay [1], in assay [2] and in assay [3] were under 0.001 µM, over 10 µM and over 10 µM, respectively.
For the molecule `C[C@H](Oc1cc(-c2nn(C)c3c(-c4cccnc4)cnc(N)c23)ccc1NS(=O)(=O)C(F)F)c1ccc(F)cc1` [Compound 25, (S)-N-(4-(4-amino-1-methyl-7-(pyridin-3-yl)-1H-pyrazolo[4,3-c]pyridin-3-yl)-2-(1-(4-fluorophenyl)ethoxy)phenyl)-1,1-difluoromethanesulfonamide], the Kd in assay [1] was under 0.001 µM; in assay [2], over 10 µM; in assay [3], over 10 µM.
In the case of `CC(C)n1cc(-c2cnc(N)c3c(-c4ccc(NS(=O)(=O)C(F)F)c(O[C@@H](C)c5ccc(F)cc5)c4)nn(C)c23)cn1` [Compound 31, (S)-N-(4-(4-amino-7-(1-isopropyl-1H-pyrazol-4-yl)-1-methyl-1H-pyrazolo[4,3-c]pyridin-3-yl)-2-(1-(4-fluorophenyl)ethoxy)phenyl)-1,1-difluoromethanesulfonamide], the figures for the Kd in assay [1], in assay [2] and in assay [3] were under 0.001 µM, over 10 µM and over 10 µM, respectively.
As for `C[C@H](Oc1cc(-c2nn(C)c3c(-c4cnn(C(C)(C)CO)c4)cnc(N)c23)ccc1NS(=O)(=O)C(F)F)c1ccc(F)cc1` [Compound 97, (S)-N-(4-(4-amino-7-(1-(1-hydroxy-2-methylpropan-2-yl)-1H-pyrazol-4-yl)-1-methyl-1H-pyrazolo[4,3-c]pyridin-3-yl)-2-(1-(4-fluorophenyl)ethoxy)phenyl)-1,1-difluoromethanesulfonamide], the values for the Kd in assay [1], in assay [2] and in assay [3] were under 0.001 µM, over 10 µM and over 10 µM, respectively.
Take `C[C@H](Oc1cc(-c2nn(C)c3c(-c4cnn(C5CC(C)(C)N(C)C(C)(C)C5)c4)cnc(N)c23)ccc1NS(=O)(=O)C(F)F)c1ccc(F)cc1` [Compound 162, (S)-N-(4-(4-amino-1-methyl-7-(1-(1,2,2,6,6-pentamethylpiperidin-4-yl)-1H-pyrazol-4-yl)-1H-pyrazolo[4,3-c]pyridin-3-yl)-2-(1-(4-fluorophenyl)ethoxy)phenyl)-1,1-difluoromethanesulfonamide]: the Kd was under 0.001 µM in assay [1], over 10 µM in assay [2] and over 10 µM in assay [3].
Consider `C[C@H](Oc1cc(-c2coc3c(-c4cnn(CCO)c4)cnc(N)c23)ccc1NS(=O)(=O)C(F)F)c1ccc(F)cc1` [Compound 9, (S)-N-(4-(4-amino-7-(1-(2-hydroxyethyl)-1H-pyrazol-4-yl)furo[3,2-c]pyridin-3-yl)-2-(1-(4-fluoro-phenyl)eth-oxy)phenyl)-1,1-difluoromethane-sulfonamide], for which the Kd in assay [1] is under 0.001 µM; in assay [2], over 10 µM; in assay [3] it was over 10 µM.
Turning to `C[C@H](Oc1cc(-c2nn(C)c3c(-c4cnn(C5CCOC5)c4)cnc(N)c23)ccc1NS(=O)(=O)C(F)F)c1ccc(F)cc1` (stereo partly drawn) [Compound 41, N-(4-(4-amino-1-methyl-7-(1-(tetrahydrofuran-3-yl)-1H-pyrazol-4-yl)-1H-pyrazolo[4,3-c]pyridin-3-yl)-2-((S)-1-(4-fluorophenyl)ethoxy)phenyl)-1,1-difluoromethanesulfonamide], the Kd in assay [1] was under 0.001 µM; in assay [2], over 10 µM; in assay [3], over 10 µM.
As to `C[C@H](Oc1cc(-c2nn(C)c3c(-c4cnn(C5(C#N)CC5)c4)cnc(N)c23)ccc1NS(=O)(=O)C(F)F)c1ccc(F)cc1` [Compound 96, N-(4-{4-amino-7-[1-(1-cyanocyclopropyl)-1H-pyrazol-4-yl]-1-methyl-1H-pyrazolo[4,3-c]pyridin-3-yl}-2-[(1S)-1-(4-fluorophenyl)ethoxy]phenyl)-1,1-difluoromethanesulfonamide], the Kd in assay [1] is under 0.001 µM; in assay [2], over 10 µM; in assay [3], over 10 µM.
Turning to `C[C@H](Oc1cc(-c2cnn3c(-c4cnn(C5CCOCC5)c4)cnc(N)c23)ccc1NS(=O)(=O)C(F)F)c1ccc(F)cc1` [Compound 36, (S)-N-(4-(4-amino-7-(1-(tetrahydro-2H-pyran-4-yl)-1H-pyrazol-4-yl)pyrazolo[1,5-a]pyrazin-3-yl)-2-(1-(4-fluorophenyl)ethoxy)phenyl)-1,1-difluoromethane-sulfonamide], the Kd in assay [1] was under 0.001 µM; in assay [2], over 10 µM; in assay [3], over 10 µM.
Take `C[C@H](Oc1cc(-c2nn(C)c3c(C#CC4CCNCC4)cnc(N)c23)ccc1NS(=O)(=O)C(F)F)c1ccc(F)cc1` [Compound 79, (S)—N-(4-(4-amino-1-methyl-7-(piperidin-4-ylethynyl)-1H-pyrazolo[4,3-c]pyridin-3-yl)-2-(1-(4-fluorophenyl)ethoxy)phenyl)-1,1-difluoromethanesulfonamide]: the Kd was under 0.001 µM in assay [1], over 10 µM in assay [2] and over 10 µM in assay [3].
`CC(C)N(C)CC(C)n1cc(-c2cnc(N)c3c(-c4ccc(NS(=O)(=O)C(F)F)c(O[C@@H](C)c5ccc(F)cc5)c4)nn(C)c23)cn1` (stereo partly drawn) [Compound 101, N-(4-(4-amino-7-(1-(1-(isopropyl(methyl)amino)propan-2-yl)-1H-pyrazol-4-yl)-1-methyl-1H-pyrazolo[4,3-c]pyridin-3-yl)-2-((S)-1-(4-fluorophenyl)ethoxy)phenyl)-1,1-difluoromethanesulfonamide]: the dissociation constant (Kd) in assay [1] is under 0.001 µM; in assay [2] it was over 10 µM; in assay [3], over 10 µM.
As for `Nc1n[nH]c2ncnc(-c3ccc(NS(=O)(=O)C(F)F)c(OCc4ccc(F)cc4)c3)c12` [Compound 69, N-(4-(3-Amino-1H-pyrazolo[3,4-d]pyrimidin-4-yl)-2-((4-fluorophenyl)methoxy)phenyl)-1,1-difluoromethanesulfonamide], the figures for the Kd in assay [1], in assay [2] and in assay [3] were under 0.001 µM, over 10 µM and over 10 µM, respectively.

The record behind these values is patent US20250115598A1 (Anaxis Pharma Pty Ltd, priority 2021, published 2025).
